# Assay: Human HepG2 cell viability assay in 384 well format
# Type: toxicity, cell-based
# Design: dose 125 nL, time 70.5 hour; cytotoxicity at 70.5 h: concentration not given beside the values
# Conditions: HepG2 cells, read-out: Inhibition
row,Structure (SMILES),cytotoxicity at 70.5 h [%]
1,c1ccc(COC[C@H]2CC[C@H]3[C@H](CCN3Cc3ccccn3)O2)nc1,-10.3
2,CCc1ccc(CN2CCC3(CC2)C(=O)N(C)CCN3CC)cc1,-10.4
3,N#Cc1cccnc1N[C@@H]1c2ccccc2C[C@@H]1O,-16.4
4,Clc1cccnc1N1CCC(C2CCN(Cc3cccnc3)CC2)C1 (stereo not drawn),25.7
5,CCCOc1cc(C)ccc1NC(=O)NCCNC(C)=O,3.53
6,CC(=O)N1CCCC(c2ccnc(N(C)C)n2)C1 (stereo not drawn),-12.5
7,O=S(=O)(c1ccccc1)N1CCC2(CCCN2Cc2cccc(F)c2)C1 (stereo not drawn),6.89
8,CN1C(=O)CO[C@H](c2ccc(NC(=O)Nc3ccccc3)cc2)[C@H]1CO,-7.02
9,COc1ccc(S(=O)(=O)NCC(O)c2sccc2C)cc1C (stereo not drawn),-3.59
10,COCCN(Cc1ccc(F)cc1Cl)C(=O)c1cc(C)n[nH]1,-0.839
11,CN(C)[C@@H]1CCN(S(=O)(=O)C2CC2)[C@H]1Cc1ccccc1,1.77
12,CN(C)[C@@H]1CN(Cc2ccc(O)cc2)C[C@H]1c1cn(C)c2ccccc12,3.53
13,c1cncc(N2CCCC3(CN(Cc4cccs4)CCO3)C2)c1 (stereo not drawn),9.99
14,CCC1(O)CCCN(c2nc(-c3ccccn3)nc3c2c(C)nn3C)C1 (stereo not drawn),-2.92
15,C[C@@H]1CN(c2ccc(C#N)cn2)CC[C@@]1(O)C1CCOCC1,27.2
16,CCc1nccn1CC(=O)N1C[C@H]2CC[C@@H]1CN(c1ncccn1)C2,-0.942
17,CN(C)C[C@@H]1CN(C(=O)c2cc(F)ccc2F)C[C@@H]1CO,-5.47
18,CCS(=O)(=O)N1Cc2ccnn2CC(c2nc(C)no2)C1 (stereo not drawn),-9.51
19,CNC(=O)[C@@H]1CC[C@@H]2[C@@H](CCN2Cc2ccccc2F)O1,-4.13
20,CN(CCCc1ccccc1)Cc1nc2c(cnn2C)c(=O)[nH]1,-5.07
21,COc1ncnc(N)c1CNCCOc1ccccc1Cl,-5.86
22,CCc1cc(=O)[nH]c(-n2nc(C3CC3)cc2NC(=O)C2CC2)n1,42.7
23,COc1ccccc1NC(=O)NCC(O)c1ccc(F)cc1F (stereo not drawn),17.3

row,Structure (SMILES),cytotoxicity at 70.5 h [%]
1,Cn1cc(-c2nc(CN3CCOC(Cn4cccn4)C3)cs2)cn1 (stereo not drawn),-5.18
2,N#Cc1c(SCCN2CCCCC2)sc2c(O)cc(O)nc12,17.9
3,CC(=O)N1CCC(c2cnc(-c3c(C)n[nH]c3C)cn2)CC1,-3.69
4,CCC(CNC(=O)c1nc(=O)[nH][nH]1)Oc1cccc(F)c1 (stereo not drawn),0.426
5,Cc1nc2cc(C(=O)N3C[C@@H](C(=O)O)[C@H](C4CC4)C3)ccc2[nH]1,-3.58
6,O=C(Cc1c[nH]c2ccccc12)N1CCC(Nc2cccnn2)CC1,-10.3
7,CN(C)c1cc2c(nn1)CCN(C(=O)C1Cc3ccccc3O1)C2 (stereo not drawn),8.33
8,CN1Cc2ccccc2CC2(CCN(c3ncc(F)cn3)CC2)C1=O,-12.1
9,CCc1cnc(CNC(=O)NC2CCN(C3CCCC3)CC2)s1,14
10,CO[C@@H]1CO[C@@]2(CCCN(Cc3nc(C)cs3)C2)C1,-1.7
11,COc1ccccc1NC(=O)NCCCn1nc2ccccn2c1=O,-3.26
12,CSc1ccc(C(=O)N(c2ccc(F)cn2)C2CCOCC2)o1,30.2
13,CCOc1cc(=O)n2c(c1C(=O)OCc1ccc(F)cc1)CCCC2,-8.82
14,COc1ccccc1CCNC(=O)CNCC1CN(C)CCO1 (stereo not drawn),-3.47
15,CC(=O)N1CCC(N2CCOC(CC3CCCCC3)C2)CC1 (stereo not drawn),-4.68
16,O=C(c1ccc(COc2ccc(Cl)cc2)o1)N1N=CCC1(O)C(F)(F)F (stereo not drawn),10.7
17,O=C(NCCc1cccs1)[C@H]1CO[C@H]2CCN(CC3CC3)C[C@H]2C1,-5.6
18,Cc1cccc(C(=O)N(CC(=O)O)CC(C)C)c1,11.7
19,CN1CCN(CC2CC2)C(=O)C12CCN(c1nccs1)CC2,7.83
20,N#Cc1nccnc1NC1CCN(c2ccccc2Br)C1 (stereo not drawn),11.1
21,Cc1cc(C(F)(F)F)nc(N2CCN(Cc3nccn3C)CC2)n1,4.75
22,Cc1nc2c(C)cccc2cc1C(=O)N1CCC2(CC1)NCCNC2=O,-15.8
23,Cc1cc(-c2cccc(-c3ccn(CCCO)n3)c2)nc(N(C)C)n1,-5.08

row,Structure (SMILES),cytotoxicity at 70.5 h [%]
1,COc1ccc(Cl)cc1CS(=O)(=O)Cc1nc(C2CC2)no1,-5.91
2,COc1ccc(CNC(=O)Nc2cccnc2N2CCCC2)cc1OC,20.8
3,Cn1cc(CCNC(=O)NC2CCS(=O)(=O)C2)cn1 (stereo not drawn),-1.53
4,CC1(C2CCN(CC(N)=O)CC2)CN(Cc2ccccc2)C(=O)O1 (stereo not drawn),-5.3
5,CCc1ncc2c(n1)CN(CC(O)COc1ccc(C#N)cc1)CC2 (stereo not drawn),-0.808
6,O=C(Nc1ccc(Cn2cccn2)cc1)N1CCC(CO)CC1,-5.76
7,CCOC(=O)N1CCN(C(=O)C(CC)n2cccn2)CC1 (stereo not drawn),5.86
8,CC(C)=CCN1CCOC(Cn2nc(C)cc2C)C1 (stereo not drawn),15.4
9,O=C(c1cccc(Cl)c1)N1CCCC2(CCCNC2)C1 (stereo not drawn),-1.15
10,O=C(c1c[nH]cn1)N1CCCn2c(nnc2Cn2cccc2)C1,-1.3
11,O=C(Cc1ccc2c(c1)OCO2)N1CCN(c2cnccn2)CC1,-8.46
12,Cc1noc(C)c1CC(=O)N1CCCN(C)c2ccc(Cl)cc21,-11.4
13,Cc1cccc(CN2CCCC3(CCC(=O)N3CCN(C)C)CC2)n1 (stereo not drawn),-3.65
14,O=C(NCCCn1ccnc1)NCC(c1ccco1)N1CCCC1 (stereo not drawn),5.06
15,CCOCc1nc(-c2cccc(OC)c2OC)n(C2CCN(C)CC2)n1,-1.78
16,O=C(c1cc(-c2ccc(O)cc2)n[nH]1)N1CCCC1c1cccnc1 (stereo not drawn),0.428
17,O=C(c1cscn1)N1CCC2(CCN(Cc3nccs3)C2)CC1,-12.2
18,CC(O)CN1CCN(C(=O)CN(C)c2ccc(C#N)cn2)CC1 (stereo not drawn),10.3
19,Cc1nc(C(Cc2ccsc2)NC(=O)CCN2CCOCC2)sc1C (stereo not drawn),-7.23
20,COCCN1CCN(CCCS(=O)(=O)N(C)C)CC1C (stereo not drawn),-2.19
21,CCS(=O)(=O)N1C[C@@H](O)[C@H](N2CCc3ccccc3C2)C1,-5.96
22,N#Cc1cccc(CN2CC[C@@H]3CO[C@@H](CN4CCCC4)[C@@H]3C2)c1,-4.24
23,CC(=O)N1CCN(Cc2ccc(C)o2)CC2(CC(=O)N(C)C2)C1 (stereo not drawn),-4.13

row,Structure (SMILES),cytotoxicity at 70.5 h [%]
1,Cc1ncsc1-c1nnc(C2CCN(Cc3ccccc3)CC2)o1,-1.36
2,Cc1noc(C(C)N2CCN(CC(=O)N3CCCC3)CC2)n1 (stereo not drawn),-1.93
3,CCn1cc(N)c(C(=O)NCc2cnn(C)c2)n1,-7.78
4,COC(=O)[C@H](C)NC(=O)c1cc(-c2cccc(Cl)c2)no1,2
5,Cc1ncccc1NC(=O)C1=NOC2(CCN(Cc3nccs3)C2)C1 (stereo not drawn),-11.1
6,CCOc1ccc(NC(C)=O)cc1S(=O)(=O)Nc1nnc(C)s1,-10.8
7,COc1c(C2CCCN2CC(=O)Nc2ccncc2)c(C)nn1C (stereo not drawn),6.03
8,OC(CNCCn1cccn1)c1cccc(F)c1 (stereo not drawn),-7.66
9,O=C(CC1CCCO1)NCc1ccccc1Cn1cncn1 (stereo not drawn),-3.75
10,CS(=O)(=O)c1ccc(C(=O)NCc2nc3cc(F)ccc3[nH]2)cc1,0.751
11,CC(C)CC(=O)NCC(O)c1c(F)cccc1F (stereo not drawn),-7.25
12,CSCc1noc(Cn2ccc3ccccc3c2=O)n1,-10.8
13,CC(=O)c1cc(CC(=O)NCc2cccc(F)c2F)cs1,-8.12
14,Cc1ncc2c(n1)C1(CCN(C(=O)C3CC3)CC1)OCC2,-9.75
15,Cc1cc(C)c(C(=O)NC(CN2CCCC2)c2ccccc2)c(=O)[nH]1 (stereo not drawn),-20.3
16,COCCN(C(=O)c1c[nH]c2ncccc12)C1CCCC1,0.976
17,CN(C)[C@H]1CN(C(=O)CCCc2ccc(F)cc2)C[C@@H]1C1CC1,-7.35
18,CCC(O)CN1CCN(C(=O)c2ccc3c(c2)COC3)CC1 (stereo not drawn),14.3
19,O=C(O)[C@@H]1CN(CCOCCO)C[C@H]1c1ccccc1,30
20,CCc1cc(N(C)Cc2noc(C(C)C)n2)nc(N2CCOCC2)n1,-13.5
21,CC(C)=CCN1C[C@H]2CC[C@@H]1CN(S(=O)(=O)c1cccnc1)C2,6.15
22,CN1CCN(c2ccc(F)cc2C(N)=O)CC1,-12.1
23,CC(C)NC(=O)N1CCc2c(CNc3ncccn3)cncc2C1,-3.35

row,Structure (SMILES),cytotoxicity at 70.5 h [%]
1,CCc1cc(C(=O)N2CCC3(CCCN(CCOC)C3=O)C2)cs1 (stereo not drawn),-9.21
2,C[C@@H](O)CNC(=O)c1nc(Cc2c(Cl)cccc2Cl)no1,-8.72
3,CC(C)(C)OC(=O)NCC1CCCCN1Cc1cccnc1 (stereo not drawn),-0.715
4,CN(Cc1ccccn1)C(=O)C(c1ccccc1)N1CCSCC1 (stereo not drawn),-7.59
5,COCC(NC(=O)c1ccc(O)nc1)c1ccc(C)o1 (stereo not drawn),0.572
6,CC(NC(=O)NCCCc1n[nH]c(N)c1C#N)c1ccc(F)c(F)c1 (stereo not drawn),-2.56
7,Cc1nc[nH]c1CN1C[C@@H]2OCCN(c3ncccn3)[C@@H]2C1,-10.6
8,CC(C)(C)c1nc(CN2CCC3(CCCO3)CCC2=O)no1 (stereo not drawn),-5.98
9,Cn1nccc1CCC(=O)N1CCCC(Cc2cccnc2)C1 (stereo not drawn),-5.31
10,CC(C)c1noc(-c2ccc(N(C)C3CCOCC3)nc2)n1,10.8
11,COCCCOc1ccc(C(=O)N(C)Cc2cccc(O)c2)cn1,-8.37
12,CC(C)COCCNC(=O)NC1CCCN(c2cnn(C)c2)C1 (stereo not drawn),-0.131
13,COc1ccccc1CC1CCCN(C(=O)c2cn[nH]c2C)C1 (stereo not drawn),-10.8
14,CNS(=O)(=O)C1CCN(c2cc(C(C)C)nc(C(C)C)n2)C1 (stereo not drawn),-6.44
15,CC(NCCCN1CCCC1=O)c1ccc(F)cc1N(C)C (stereo not drawn),-4.56
16,COC(=O)CCC(=O)N1CCCC2(CCCN2Cc2cccc(F)c2)C1 (stereo not drawn),-6.42
17,CCN1CCN(C[C@@H]2CN(c3ncc(Cl)cc3Cl)C[C@@H]2CO)CC1,-6.63
18,Cc1csc(NC(=O)c2cnc(C3CCCN3)cn2)n1 (stereo not drawn),-13.1
19,CC(OCC(F)(F)F)C(=O)NCc1ccc(-n2cncn2)nc1 (stereo not drawn),-12.1
20,CCc1ncncc1C(=O)N1CCN(Cc2c(C)noc2C)CC1,-11.6
21,Cc1cc2nc(SCC(=O)N3CCOCC3)n(CCC(C)C)c(=O)c2[nH]1,-0.683
